One test has as its target human recombinant MAGL (Homo sapiens (Human), UniProt Q99685). The test can be described thus: In vitro inhibition of human recombinant MAGL activity (Cayman inhibitor screening kit, 4-nitrophenylacetate hydrolysis). The class given is biochemical. To be noted: human recombinant MAGL; read-out: Inhibition on MAGL activity (IC50). From the text:
The inhibitory effect of the synthetic chemicals on activity of human recombinant MAGL was studied using commercial inhibitor screening kit (Cayman Chemical). […] The absorbance of the yellow product can be analyzed using the plate reader. […]

A further test concerns the target human recombinant FAAH (Homo sapiens (Human), UniProt O00519). The test can be described thus: In vitro inhibition of human recombinant FAAH activity (Cayman FAAH inhibitor screening kit, AMC arachidonoyl amide hydrolysis). Type of test: biochemical. From the text:
In brief, FAAH hydrolyzes AMC arachidonoyl amide resulting in the release of the fluorescent product, while the inhibitor will inhibit the FAAH activity and thus reduce the fluorescent signal.

Among the data in patent US12378231B2, “Small molecules as monoacylglycerol lipase (MAGL) inhibitors, compositions and use thereof” (APOGEE PHARMACEUTICALS, INC., priority 2023, dated 2025) are IC50 values, retold here.

pIC50: −log10 of the molar value.

human recombinant FAAH, sequence (O00519 whole entry): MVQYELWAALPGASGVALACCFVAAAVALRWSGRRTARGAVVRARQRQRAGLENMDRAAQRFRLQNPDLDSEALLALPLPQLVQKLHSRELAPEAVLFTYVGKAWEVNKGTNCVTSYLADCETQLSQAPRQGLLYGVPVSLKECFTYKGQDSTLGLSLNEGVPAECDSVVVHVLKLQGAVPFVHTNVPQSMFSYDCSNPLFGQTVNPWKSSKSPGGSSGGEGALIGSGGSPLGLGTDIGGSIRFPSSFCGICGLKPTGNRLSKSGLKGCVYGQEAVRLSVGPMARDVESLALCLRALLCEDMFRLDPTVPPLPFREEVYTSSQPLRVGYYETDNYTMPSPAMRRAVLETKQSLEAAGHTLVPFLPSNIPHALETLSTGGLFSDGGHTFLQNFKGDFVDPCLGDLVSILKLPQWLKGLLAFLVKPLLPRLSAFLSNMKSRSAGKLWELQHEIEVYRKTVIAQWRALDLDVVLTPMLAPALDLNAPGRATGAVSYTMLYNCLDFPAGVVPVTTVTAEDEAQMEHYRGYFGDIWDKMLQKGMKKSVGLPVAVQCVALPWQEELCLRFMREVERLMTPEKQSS
human recombinant MAGL, sequence (Q99685 whole entry): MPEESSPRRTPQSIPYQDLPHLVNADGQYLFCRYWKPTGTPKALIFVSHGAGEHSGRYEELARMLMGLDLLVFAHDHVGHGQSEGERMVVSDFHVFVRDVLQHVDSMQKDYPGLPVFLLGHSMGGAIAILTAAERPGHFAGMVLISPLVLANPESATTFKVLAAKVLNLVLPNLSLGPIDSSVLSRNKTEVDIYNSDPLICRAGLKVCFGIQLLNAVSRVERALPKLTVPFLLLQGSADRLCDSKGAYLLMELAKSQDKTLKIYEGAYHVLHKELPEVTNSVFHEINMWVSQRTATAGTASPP

Regarding `N#Cc1ccc2nnn(C(=O)N3CCCN(C(c4ccc5c(c4)COCO5)c4ccc5c(c4)COCO5)CC3)c2c1` [Example 51, 1-(4-(bis(4H-benzo[d][1,3]dioxin-6-yl)methyl)-1,4-diazepane-1-carbonyl)-1H-benzo[d][1,2,3]triazole-6-carbonitrile], the pIC50 is 7.00 to 8.00 at human recombinant MAGL and under 5.00 at human recombinant FAAH.

Take `O=C(C1CCN(C(c2ccc3c(c2)COCO3)c2ccc3c(c2)COCO3)CC1)n1nnc2ccccc21` [Example 52, (1H-benzo[d][1,2,3]triazol-1-yl)(1-(bis(4H-benzo[d][1,3]dioxin-6-yl)methyl)piperidin-4-yl)methanone]: the pIC50 on human recombinant MAGL was under 7.00; on human recombinant FAAH it was under 4.30.

Consider `O=C(OC(C(F)(F)F)C(F)(F)F)C1CCN(C(c2ccc3c(c2)COCO3)c2ccc3c(c2)COCO3)CC1` [Example 53, 1,1,1,3,3,3-hexafluoropropan-2-yl 1-(bis(4H-benzo[d][1,3]dioxin-6-yl)methyl)piperidine-4-carboxylate], for which the values for the pIC50 at human recombinant MAGL and on human recombinant FAAH were under 7.00 and under 4.30, respectively.

Consider `O=C(Oc1c(F)c(F)c(F)c(F)c1F)C1CCN(C(c2ccc3c(c2)COCO3)c2ccc3c(c2)COCO3)CC1` [Example 54, pentafluorophenyl 1-(bis(4H-benzo[d][1,3]dioxin-6-yl)methyl)piperidine-4-carboxylate], for which the pIC50 on human recombinant MAGL is under 7.00; on human recombinant FAAH, under 4.30.

Turning to `CN(CCOC(c1ccc2c(c1)COCO2)c1ccc2c(c1)COCO2)C(=O)n1nnc2ccc(C#N)cc21` [Example 55, N-(2-(bis(4H-benzo[d][1,3]dioxin-6-yl)methoxy)ethyl)-6-cyano-N-methyl-1H-benzo[d][1,2,3]triazole-1-carboxamide], the results for the pIC50 on human recombinant MAGL and on human recombinant FAAH were 8.00 to 9.00 and 5.00 to 6.00, respectively.

Consider `N#Cc1ccc2nnn(C(=O)N3CCC(OC(c4ccc5c(c4)COCO5)c4ccc5c(c4)COCO5)CC3)c2c1` [Example 56, 1-(4-(bis(4H-benzo[d][1,3]dioxin-6-yl)methoxy)piperidine-1-carbonyl)-1H-benzo[d][1,2,3]triazole-6-carbonitrile], for which the pIC50 is 8.00 to 9.00 at human recombinant MAGL and under 5.00 on human recombinant FAAH.

On to `N#Cc1ccc2c(c1)nnn2C(=O)N1CCC(OC(c2ccc3c(c2)COCO3)c2ccc3c(c2)COCO3)CC1` [Example 57, 1-(4-(bis(4H-benzo[d][1,3]dioxin-6-yl)methoxy)piperidine-1-carbonyl)-1H-benzo[d][1,2,3]triazole-5-carbonitrile], for which the figures for the negative-log IC50 (pIC50) at human recombinant MAGL and on human recombinant FAAH were 8.00 to 9.00 and 6.00 to 7.00, respectively.

Turning to `N#Cc1ccc2nnn(C(=O)N3CC4(CC(OC(c5ccc6c(c5)COCO6)c5ccc6c(c5)COCO6)C4)C3)c2c1` [Example 59, 1-(6-(bis(4H-benzo[d][1,3]dioxin-6-yl)methoxy)-2-azaspiro[3.3]heptane-2-carbonyl)-1H-benzo[d][1,2,3]triazole-6-carbonitrile], the pIC50 at human recombinant MAGL was 7.00 to 8.00; at human recombinant FAAH, about 5.00.

For `N#Cc1ccc2c(c1)nnn2C(=O)N1CC2(CC(OC(c3ccc4c(c3)COCO4)c3ccc4c(c3)COCO4)C2)C1` [Example 60, 1-(6-(bis(4H-benzo[d][1,3]dioxin-6-yl)methoxy)-2-azaspiro[3.3]heptane-2-carbonyl)-1H-benzo[d][1,2,3]triazole-5-carbonitrile], the pIC50 at human recombinant MAGL is 7.00 to 8.00; on human recombinant FAAH, over 5.00.

In the case of `N#Cc1ccc2nnn(C(=O)N3CCC(N(c4ccc(F)cc4)c4ccc(F)cc4)CC3)c2c1` [Example 61, 1-(4-(bis(4-fluorophenyl)amino)piperidine-1-carbonyl)-1H-benzo[d][1,2,3]triazole-6-carbonitrile], the negative logarithm of the IC50 (pIC50) on human recombinant MAGL was 8.00 to 9.00; on human recombinant FAAH, 6.00 to 7.00.

Regarding `N#Cc1ccc2nnn(C(=O)N3CCC(N(c4ccc(F)cc4)c4ccc5c(c4)OCO5)CC3)c2c1` [Example 63, 1-(4-(benzo[d][1,3]dioxol-5-yl(4-fluorophenyl)amino)piperidine-1-carbonyl)-1H-benzo[d][1,2,3]triazole-6-carbonitrile], the pIC50 was 8.00 to 9.00 on human recombinant MAGL and 6.00 to 7.00 at human recombinant FAAH.

With `N#Cc1ccc2c(c1)nnn2C(=O)N1CCC(N(c2ccc(F)cc2)c2ccc3c(c2)OCO3)CC1` [Example 64, 1-(4-(benzo[d][1,3]dioxol-5-yl(4-fluorophenyl)amino)piperidine-1-carbonyl)-1H-benzo[d][1,2,3]triazole-5-carbonitrile], the pIC50 was 8.00 to 9.00 on human recombinant MAGL and 7.00 to 8.00 on human recombinant FAAH.

Regarding `COc1ccc(N(c2ccc(F)cc2)C2CCN(C(=O)n3nnc4ccc(C#N)cc43)CC2)cc1` [Example 65, 1-(4-((4-fluorophenyl)(4-methoxyphenyl)amino)piperidine-1-carbonyl)-1H-benzo[d][1,2,3]triazole-6-carbonitrile], the pIC50 on human recombinant MAGL was 8.00 to 9.00; on human recombinant FAAH it was 6.00 to 7.00.

With `COc1ccc(N(c2ccc(F)cc2)C2CCN(C(=O)n3nnc4cc(C#N)ccc43)CC2)cc1` [Example 66, 1-(4-((4-fluorophenyl)(4-methoxyphenyl)amino)piperidine-1-carbonyl)-1H-benzo[d][1,2,3]triazole-5-carbonitrile], the pIC50 on human recombinant MAGL is 8.00 to 9.00; at human recombinant FAAH it was 6.00 to 7.00.

Turning to `N#Cc1ccc2nnn(C(=O)N3CCC(N(c4ccc5c(c4)OCO5)c4ccc5c(c4)OCO5)CC3)c2c1` [Example 67, 1-(4-(bis(benzo[d][1,3]dioxol-5-yl)amino)piperidine-1-carbonyl)-1H-benzo[d][1,2,3]triazole-6-carbonitrile], the pIC50 was 8.00 to 9.00 at human recombinant MAGL and 6.00 to 7.00 at human recombinant FAAH.

With `N#Cc1ccc2c(c1)nnn2C(=O)N1CCC(N(c2ccc3c(c2)OCO3)c2ccc3c(c2)OCO3)CC1` [Example 68, 1-(4-(bis(benzo[d][1,3]dioxol-5-yl)amino)piperidine-1-carbonyl)-1H-benzo[d][1,2,3]triazole-5-carbonitrile], the pIC50 on human recombinant MAGL is 8.00 to 9.00; at human recombinant FAAH it was 6.00 to 7.00.

In the case of `N#Cc1ccc2nnn(C(=O)N3CCC(N(c4ccc(C(F)(F)F)cc4)c4ccc5c(c4)OCO5)CC3)c2c1` [Example 69, 1-(4-(benzo[d][1,3]dioxol-5-yl(4-(trifluoromethyl)phenyl)amino)piperidine-1-carbonyl)-1H-benzo[d][1,2,3]triazole-6-carbonitrile], the pIC50 on human recombinant MAGL was 8.00 to 9.00; at human recombinant FAAH, 6.00 to 7.00.

As to `N#Cc1ccc2c(c1)nnn2C(=O)N1CCC(N(c2ccc(C(F)(F)F)cc2)c2ccc3c(c2)OCO3)CC1` [Example 70, 1-(4-(benzo[d][1,3]dioxol-5-yl(4-(trifluoromethyl)phenyl)amino)piperidine-1-carbonyl)-1H-benzo[d][1,2,3]triazole-5-carbonitrile], the pIC50 at human recombinant MAGL is 8.00 to 9.00; at human recombinant FAAH, 6.00 to 7.00.

Take `N#Cc1ncn(C(=O)N2CCC(N(c3ccc(C(F)(F)F)cc3)c3ccc4c(c3)OCO4)CC2)n1` [Example 71, 1-(4-(benzo[d][1,3]dioxol-5-yl(4-(trifluoromethyl)phenyl)amino)piperidine-1-carbonyl)-1H-1,2,4-triazole-3-carbonitrile]: the results for the pIC50 at human recombinant MAGL and at human recombinant FAAH were 8.00 to 9.00 and 6.00 to 7.00, respectively.

Consider `COc1ccc(N(c2ccc3c(c2)OCO3)C2CCN(C(=O)n3nnc4ccc(C#N)cc43)CC2)cc1` [Example 72, 1-(4-(benzo[d][1,3]dioxol-5-yl(4-methoxyphenyl)amino)piperidine-1-carbonyl)-1H-benzo[d][1,2,3]triazole-6-carbonitrile], for which the pIC50 on human recombinant MAGL was 8.00 to 9.00; at human recombinant FAAH, 6.00 to 7.00.

As to `COc1ccc(N(c2ccc3c(c2)OCO3)C2CCN(C(=O)n3nnc4cc(C#N)ccc43)CC2)cc1` [Example 73, 1-(4-(benzo[d][1,3]dioxol-5-yl(4-methoxyphenyl)amino)piperidine-1-carbonyl)-1H-benzo[d][1,2,3]triazole-5-carbonitrile], the pIC50 is 8.00 to 9.00 on human recombinant MAGL and 6.00 to 7.00 on human recombinant FAAH.

As for `N#Cc1ccc2nnn(C(=O)N3CCC(N(c4cccnc4)c4ccc5c(c4)OCO5)CC3)c2c1` [Example 74, 1-(4-(benzo[d][1,3]dioxol-5-yl(pyridin-3-yl)amino)piperidine-1-carbonyl)-1H-benzo[d][1,2,3]triazole-6-carbonitrile], the pIC50 on human recombinant MAGL is 8.00 to 9.00; at human recombinant FAAH, 6.00 to 7.00.

Consider `N#Cc1ccc2c(c1)nnn2C(=O)N1CCC(N(c2cccnc2)c2ccc3c(c2)OCO3)CC1` [Example 75, 1-(4-(benzo[d][1,3]dioxol-5-yl(pyridin-3-yl)amino)piperidine-1-carbonyl)-1H-benzo[d][1,2,3]triazole-5-carbonitrile], for which the pIC50 on human recombinant MAGL was 8.00 to 9.00; on human recombinant FAAH it was 6.00 to 7.00.

As for `C=COc1ccc(N(c2ccc(F)cc2)C2CCN(C(=O)n3nnc4ccc(C#N)cc43)CC2)cc1` [Example 76, 1-(4-((4-fluorophenyl)(4-(vinyloxy)phenyl)amino)piperidine-1-carbonyl)-1H-benzo[d][1,2,3]triazole-6-carbonitrile], the pIC50 at human recombinant MAGL is 8.00 to 9.00; on human recombinant FAAH, 6.00 to 7.00.

With `C=COc1ccc(N(c2ccc(F)cc2)C2CCN(C(=O)n3nnc4cc(C#N)ccc43)CC2)cc1` [Example 77, 1-(4-((4-fluorophenyl)(4-(vinyloxy)phenyl)amino)piperidine-1-carbonyl)-1H-benzo[d][1,2,3]triazole-5-carbonitrile], the pIC50 is 8.00 to 9.00 at human recombinant MAGL and 6.00 to 7.00 at human recombinant FAAH.

For the molecule `N#Cc1ncn(C(=O)N2CCC3(CC2)CCN(C(c2ccc4c(c2)COCO4)c2ccc4c(c2)COCO4)CC3)n1` [Example 79, 1-(9-(bis(4H-benzo[d][1,3]dioxin-6-yl)methyl)-3,9-diazaspiro[5.5]undecane-3-carbonyl)-1H-1,2,4-triazole-3-carbonitrile], the pIC50 on human recombinant MAGL was 8.00 to 9.00; on human recombinant FAAH it was about 4.30.

For `N#Cc1ncn(C(=O)N2CC3(C2)CN(C(c2ccc4c(c2)COCO4)c2ccc4c(c2)COCO4)C3)n1` [Example 80, 1-(6-(bis(4H-benzo[d][1,3]dioxin-6-yl)methyl)-2,6-diazaspiro[3.3]heptane-2-carbonyl)-1H-1,2,4-triazole-3-carbonitrile], the pIC50 on human recombinant MAGL is 7.00 to 8.00; at human recombinant FAAH, 4.30 to 5.00.

For orientation: pIC50 means −log10 of the IC50, conventionally taken in molar units.
